The values below come from PMC7321161, “The Intriguing Effects of Substituents in the N-Phenethyl Moiety of Norhydromorphone: A Bifunctional Opioid from a Set of “Tail Wags Dog” Experiments” (Molecules, 2020).

“And” between values parts separate entries of the source, which are not always exact repeats. Identical values can stand only once.

For one test, the target named is T1, μ-opioid receptor (MOR) (Rattus norvegicus, UniProt P33535).
T1 construct: Frozen whole rat brains excluding cerebellum were thawed on ice; from tissue; host or cells: whole rat brain excluding cerebellum, membrane homogenate
T1 sequence (P33535 whole entry): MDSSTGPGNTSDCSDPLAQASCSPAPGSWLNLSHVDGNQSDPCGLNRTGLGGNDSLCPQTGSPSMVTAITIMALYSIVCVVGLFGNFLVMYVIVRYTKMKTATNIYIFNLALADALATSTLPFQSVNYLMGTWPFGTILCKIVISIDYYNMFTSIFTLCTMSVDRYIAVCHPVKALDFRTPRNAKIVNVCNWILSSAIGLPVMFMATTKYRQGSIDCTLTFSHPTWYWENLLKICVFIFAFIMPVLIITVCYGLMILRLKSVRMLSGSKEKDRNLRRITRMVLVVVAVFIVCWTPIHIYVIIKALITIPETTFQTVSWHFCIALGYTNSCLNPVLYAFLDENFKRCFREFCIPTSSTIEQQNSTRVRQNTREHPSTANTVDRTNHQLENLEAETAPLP
Briefly: Opioid receptor binding, μ sites ([3H]DAMGO), rat brain homogenate.

The next test addresses T2, δ-opioid receptor (DOR) (Rattus norvegicus, UniProt P33533).
T2 construct: Frozen whole rat brains excluding cerebellum were thawed on ice; from tissue; host or cells: whole rat brain excluding cerebellum, membrane homogenate
The test can be described thus: Opioid receptor binding, δ sites ([3H]DADLE), rat brain homogenate.

A further test has as its target T3, κ-opioid receptor (KOR) (Rattus norvegicus, UniProt P34975).
T3 construct: Frozen whole rat brains excluding cerebellum were thawed on ice; from tissue; host or cells: whole rat brain excluding cerebellum, membrane homogenate
The test can be described thus: Opioid receptor binding, κ sites ([3H]U69,593), rat brain homogenate. The note with it: for Ki: KOR Binding (Ki), whole rat brain excluding cerebellum, [3H]U69,593, Ki ± SEM; for KOR Binding, exploratory binding assay: radioligand displacement at 100 nM.

A further test deals with T4, rat MOR (Rattus norvegicus, UniProt P33535).
T4 construct: expressed in transfected cells; host or cells: C6 rat glioma cells, stably transfected; membranes
T4 sequence (P33535 whole entry): as above
The test can be described thus: Stimulation of [35S]GTPγS binding, C6 glioma cell membranes expressing MOR. Format: biochemical. The conditions noted are these: for MOR % Stimulation, [35S]GTPγS: compared to standard maximal DAMGO; for MOR EC50, [35S]GTPγS: C6 cells expressing MOR, mean ± SEM, DNS = no stimulation; for MOR activity type in the [35S]GTPγS assay: antagonist activity assumed from high MOR affinity and lack of stimulation. On the technique in general: GTPγS resists hydrolysis and so accumulates on activated G proteins.

For test [1], the target named is T5, human μ-opioid receptor (OPRM1) (Homo sapiens, UniProt P35372).
T5 construct: host or cells: HitHunter CHO-K1 cells
T5 sequence (P35372 whole entry): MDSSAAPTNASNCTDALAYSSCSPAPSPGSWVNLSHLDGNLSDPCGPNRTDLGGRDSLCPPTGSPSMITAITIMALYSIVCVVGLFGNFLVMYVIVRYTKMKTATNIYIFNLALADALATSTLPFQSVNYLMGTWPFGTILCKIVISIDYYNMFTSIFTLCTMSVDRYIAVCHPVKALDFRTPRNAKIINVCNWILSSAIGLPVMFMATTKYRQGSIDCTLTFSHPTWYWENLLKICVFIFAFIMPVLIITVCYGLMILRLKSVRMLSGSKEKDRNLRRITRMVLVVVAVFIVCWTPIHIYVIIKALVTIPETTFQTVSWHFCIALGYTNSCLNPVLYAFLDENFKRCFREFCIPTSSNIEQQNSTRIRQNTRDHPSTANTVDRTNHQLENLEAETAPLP
Briefly: cell-based. The note with it: for EC50: MOR cAMP Agonist Potency ± SEM; for Emax: OPRM1, read-out: MOR cAMP % Efficacy.

In test [2] the target is T6, human δ-receptor (OPRMD1) (Homo sapiens, UniProt P41143).
T6 construct: host or cells: HitHunter CHO-K1 cells
T6 sequence (P41143 whole entry): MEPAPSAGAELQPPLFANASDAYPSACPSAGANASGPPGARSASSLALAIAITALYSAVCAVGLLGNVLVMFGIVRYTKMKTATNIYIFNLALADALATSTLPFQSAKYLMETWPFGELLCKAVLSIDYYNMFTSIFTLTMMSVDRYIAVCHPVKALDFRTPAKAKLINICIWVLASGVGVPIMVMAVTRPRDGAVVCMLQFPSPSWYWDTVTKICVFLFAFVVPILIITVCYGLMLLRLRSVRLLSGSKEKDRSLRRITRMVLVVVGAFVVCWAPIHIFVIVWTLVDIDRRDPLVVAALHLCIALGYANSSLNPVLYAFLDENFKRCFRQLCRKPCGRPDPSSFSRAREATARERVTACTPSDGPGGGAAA
Briefly: cell-based. The note with it: for Emax: CHO-K1, read-out: DOR cAMP % Efficacy; for EC50: DOR cAMP Agonist Potency ± SEM. Format: cell-based.

Test [3] concerns the target T7, human κ-opioid receptor (OPRK1) (Homo sapiens, UniProt P41145).
T7 construct: host or cells: HitHunter CHO-K1 cells
Briefly: cell-based. The note with it: for Emax: CHO-K1, read-out: KOR cAMP % Efficacy; for EC50: KOR cAMP Agonist Potency ± SEM.

For test [4], the target named is T8, human μ-opioid receptor β-arrestin-2 (Homo sapiens, UniProt P35372).
T8 construct: enzyme fragment for EFC (β-galactosidase ProLink fragment, by own knowledge of the PathHunter system); host or cells: PathHunter CHO cells
T8 sequence (P35372 whole entry, the tested form may be a part): as the sequence (P35372 whole entry) above
Briefly: cell-based. The conditions noted are these: for Emax: read-out: MOR Mediated β-arrestin Recruitment (% Control, Emax DAMGO). For orientation: Activated receptors often draw arrestin, which recruitment assays turn into a signal.

The target in a further test is T9, human KOR (Homo sapiens, UniProt P41145).
T9 construct: expressed in transfected cells; membranes
T9 sequence (P41145 whole entry): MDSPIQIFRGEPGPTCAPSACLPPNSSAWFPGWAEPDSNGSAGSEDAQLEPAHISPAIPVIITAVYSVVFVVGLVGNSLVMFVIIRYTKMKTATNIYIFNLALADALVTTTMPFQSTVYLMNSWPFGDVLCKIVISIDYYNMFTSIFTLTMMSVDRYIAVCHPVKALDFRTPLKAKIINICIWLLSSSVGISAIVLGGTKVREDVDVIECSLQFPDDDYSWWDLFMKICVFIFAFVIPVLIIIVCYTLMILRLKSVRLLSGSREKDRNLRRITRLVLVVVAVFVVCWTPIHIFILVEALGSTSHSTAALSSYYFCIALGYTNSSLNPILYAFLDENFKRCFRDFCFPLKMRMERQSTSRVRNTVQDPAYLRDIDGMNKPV
Briefly: Stimulation of [35S]GTPγS binding, CHO cell membranes expressing KOR. Format: biochemical.

In a further test the target is T10, rat DOR (Rattus norvegicus, UniProt P33533).
T10 construct: expressed in transfected cells; host or cells: C6 rat glioma cells, stably transfected; membranes
T10 sequence (P33533 whole entry): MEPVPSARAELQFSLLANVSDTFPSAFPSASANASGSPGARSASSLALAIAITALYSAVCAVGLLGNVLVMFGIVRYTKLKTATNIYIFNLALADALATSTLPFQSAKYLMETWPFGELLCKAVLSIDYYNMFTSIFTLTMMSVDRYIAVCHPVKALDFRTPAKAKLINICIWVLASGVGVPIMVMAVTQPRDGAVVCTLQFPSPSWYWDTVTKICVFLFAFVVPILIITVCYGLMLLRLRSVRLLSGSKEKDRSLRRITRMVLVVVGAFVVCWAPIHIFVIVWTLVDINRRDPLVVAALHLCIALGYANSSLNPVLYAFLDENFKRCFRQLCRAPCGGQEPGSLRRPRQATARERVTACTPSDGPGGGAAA
Briefly: Stimulation of [35S]GTPγS binding, C6 glioma cell membranes expressing DOR. Type of test: biochemical. The note with it: for EC50: DOR EC50, [35S]GTPγS, C6 cells expressing DOR, mean ± SEM; for DOR % Stimulation, [35S]GTPγS: compared to standard maximal DPDPE.

T7 sequence (P41145 whole entry): as the sequence (P41145 whole entry) above
T3 sequence (P34975 whole entry): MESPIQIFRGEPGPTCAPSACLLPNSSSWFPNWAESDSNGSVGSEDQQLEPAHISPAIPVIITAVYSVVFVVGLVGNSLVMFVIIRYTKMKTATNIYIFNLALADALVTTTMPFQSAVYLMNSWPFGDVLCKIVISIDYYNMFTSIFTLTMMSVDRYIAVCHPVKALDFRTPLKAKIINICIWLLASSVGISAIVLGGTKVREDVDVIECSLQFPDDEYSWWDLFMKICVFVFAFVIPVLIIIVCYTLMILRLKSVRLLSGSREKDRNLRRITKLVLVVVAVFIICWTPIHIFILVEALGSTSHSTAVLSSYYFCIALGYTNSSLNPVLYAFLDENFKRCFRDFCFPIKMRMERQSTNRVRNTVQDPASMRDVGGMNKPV
T2 sequence (P33533 whole entry): as the sequence (P33533 whole entry) above

What is called Ki is the equilibrium dissociation constant of an inhibitor or competing ligand from its target. A lower Ki goes with a stronger hold on the target. As a reminder, the EC50 is the concentration giving half of the maximal effect. Low values mean an effect from little substance, high ones a need for much substance. For `N#CCN1CC[C@]23c4c5ccc(O)c4O[C@H]2C(=O)CCC3C1C5` (stereo partly drawn) [Compound 1a, 2-((7aR,12bS)-9-Hydroxy-7-oxo-1,2,4,4a,5,6,7,7a-octahydro-3H-4,12-methanobenzofuro[3,2-e]isoquinolin-3-yl)acetonitrile], the Ki came out at 4.51 ± 0.27 nM at μ-opioid receptor (MOR), 141 ± 2.8 nM on δ-opioid receptor (DOR) and 90.3 ± 6.6 nM at κ-opioid receptor (KOR). Also, the EC50 turned out to be 425 ± 133 nM on rat MOR; 4.16 nM in [1]; 254 nM in [2]; 109 nM in test [3]; 424 nM in [4]. For the same molecule, the “MOR % Stimulation, [35S]GTPγS” value on rat MOR was 47% and 47.1 ± 3.3%. The Emax in test [1] is 102%; in test [2], 77%; in test [3] it was 99.3%; in test [4], 33.4%. Moreover, the “Bias Factor” value in [4] worked out at 2.18.
`N#CCCCN1CCC23c4c5ccc(O)c4OC2C(=O)CCC3C1C5` (centres unmarked) [Compound 1b]: the Ki was found to be 4.25 ± 0.29 nM at μ-opioid receptor (MOR), 72.2 ± 1.2 nM on δ-opioid receptor (DOR) and 2.71 ± 0.22 nM at κ-opioid receptor (KOR). The “MOR EC50, [35S]GTPγS” value on rat MOR is on record as “DNS”. For the same molecule, the “MOR activity type in the [35S]GTPγS assay” value (“MOR activity type” for short) on rat MOR is listed as “MOR antagonist”. The same molecule showed an EC50 on human KOR of 24.3 ± 5 nM. Further, on human KOR (compared to standard maximal U69593), the “KOR % Stimulation, [35S]GTPγS” value came out at 89.6 ± 0.9%.
`O=C1CCC2C3Cc4ccc(O)c5c4[C@@]2(CCN3CC=Cc2ccccc2)[C@H]1O5` (stereo partly drawn) [Compound 1c, (7aR,12bS)-3-Cinnamyl-9-hydroxy-2,3,4,4a,5,6-hexahydro-1H-4,12-methanobenzofuro[3,2-e]isoquinolin-7(7aH)-one]: the Ki at μ-opioid receptor (MOR) stood at 90.5 ± 11 nM. On δ-opioid receptor (DOR) (radioligand displacement at 100 nM), the “DOR Binding, exploratory binding assay” value is “NT (NT = not tested—inactive (<50% activity at 100 nM concentration in exploratory binding assays (displaced less than half of radioligand))”. Besides, the “KOR Binding, exploratory binding assay” value on κ-opioid receptor (KOR) was “NT (NT = not tested—inactive (<50% activity at 100 nM concentration in exploratory binding assays (displaced less than half of radioligand))”. Also, the EC50 in test [1] is 76.7 nM; in test [2] it was 1700 nM; in test [3] it was greater than 10000 nM; in test [4], 584 nM. Further, the Emax in [1] was 103%; in test [2], 96.5%; in [4], 4.1%. In [4], the “Bias Factor” value was 1.35.
In the case of `O=C1CCC2C3Cc4ccc(O)c5c4[C@@]2(CCN3CC2Cc3ccccc3C2)[C@H]1O5` (stereo partly drawn) [Compound 1d, (7aR,12bS)-3-((2,3-Dihydro-1H-inden-2-yl)methyl)-9-hydroxy-2,3,4,4a,5,6-hexahydro-1H-4,12-methano-benzofuro[3,2-e]isoquinolin-7(7aH)-one], the inhibition constant Ki amounted to 40.1 ± 5.9 nM at μ-opioid receptor (MOR) and 844 ± 107 nM on δ-opioid receptor (DOR). The “KOR Binding, exploratory binding assay” value at κ-opioid receptor (KOR) is “NT (NT = not tested—inactive (<50% activity at 100 nM concentration in exploratory binding assays (displaced less than half of radioligand))”. Besides, the EC50 in [1] was 18.3 nM; in [2], 596 nM; in test [3] it was greater than 10000 nM; in [4], 130 nM. Also, the Emax in test [1] is 95.2%; in [2], 94.4%; in [4], 1.9%. Also, in test [4], the “Bias Factor” value is on record as 2.53.
Turning to `O=C1CCC2C3Cc4ccc(O)c5c4[C@@]2(CCN3CCc2ccc([N+](=O)[O-])cc2)[C@H]1O5` (stereo partly drawn) [Compound 2a, (7aR,12bS)-9-Hydroxy-3-(4-nitrophenethyl)-2,3,4,4a,5,6-hexahydro-1H-4,12-methanobenzofuro[3,2-e]-isoquinolin-7(7aH)-one], the values for the Ki at μ-opioid receptor (MOR), on δ-opioid receptor (DOR) and on κ-opioid receptor (KOR) were 0.52 ± 0.01 nM, 6.07 ± 0.86 nM and 56 ± 8.2 nM, respectively. The EC50 on rat MOR is 1.9 ± 0.5 nM; at rat DOR, 227 ± 53 nM; in test [1], 0.05 nM; in test [2], 0.53 nM; in [3], 74.6 nM; in test [4], 6.38 nM. Also, the “MOR activity type” value on rat MOR is listed as “potent MOR agonist”. For the same molecule, the “MOR % Stimulation, [35S]GTPγS” value at rat MOR came out at 26.6 ± 1.4%. Also, the “DOR % Stimulation, [35S]GTPγS” value at rat DOR came to 64.3 ± 3.3%. For the same molecule, the Emax in test [1] is 102%; in test [2], 96%; in test [3], 63%; in test [4], 26.2%. For the same molecule, the “Bias Factor” value in test [4] amounted to 4.51.
As to `O=C1CCC2C3Cc4ccc(O)c5c4C2(CCN3CCc2cccc([N+](=O)[O-])c2)C1O5` [Compound 2b, (7aR,12bS)-9-Hydroxy-3-(3-nitrophenethyl)-2,3,4,4a,5,6-hexahydro-1H-4,12-methanobenzofuro[3,2-e]-0isoquinolin-7(7aH)-one], the Ki on μ-opioid receptor (MOR) amounted to 5.88 ± 0.38 nM; at δ-opioid receptor (DOR), 92.5 ± 7.3 nM; at κ-opioid receptor (KOR), 65.4 ± 7.7 nM. For the same molecule, the “MOR EC50, [35S]GTPγS” value at rat MOR is “DNS”. In addition, on rat MOR, the “MOR activity type” value was “MOR antagonist”. In addition, the EC50 in [1] is 5.2 nM and 5.22 nM; in test [2] it was 46.7 nM; in [3] it was greater than 10000 nM; in [4] it was 116 nM. Moreover, the Emax in test [1] was 102%; in [2], 95.3%; in test [4] it was 6%. Also, the “Bias Factor” value in [4] amounted to 3.38.
Turning to `O=C1CCC2C3Cc4ccc(O)c5c4[C@@]2(CCN3CCc2ccc(C(F)(F)F)cc2)[C@H]1O5` (stereo partly drawn) [Compound 2h, (7aR,12bS)-9-Hydroxy-3-(4-(trifluoromethyl)phenethyl)-2,3,4,4a,5,6-hexahydro-1H-4,12-methanobenzofuro-[3,2-e]isoquinolin-7(7aH)-one], the Ki was determined as 2.7 ± 0.17 nM at μ-opioid receptor (MOR) and 16.4 ± 0.4 nM at δ-opioid receptor (DOR). For the same molecule, the “KOR Binding, exploratory binding assay” value at κ-opioid receptor (KOR) was “NT (NT = not tested—inactive (<50% activity at 100 nM concentration in exploratory binding assays (displaced less than half of radioligand))”. Besides, the EC50 was 3.4 ± 1.2 nM on rat MOR; 36 nM and 35.7 nM on rat DOR; 0.21 nM in test [1]; 2.41 nM in test [2]; 98.2 nM in test [3]; 10.3 nM in test [4]. Further, the “MOR % Stimulation, [35S]GTPγS” value at rat MOR is 72.2 ± 5.5%. In addition, the “DOR % Stimulation, [35S]GTPγS” value on rat DOR came out at 82.3 ± 2.3%. Also, the Emax in test [1] was 102%; in test [2], 94.3%; in test [3], 95.7%; in test [4], 62.4%. The “Bias Factor” value in [4] was 0.56.
Turning to `O=C(O)C(=O)O.O=C1CCC2[C@H]3Cc4ccc(O)c5c4[C@@]2(CCN3CCc2ccc(Br)cc2)[C@H]1O5` (stereo partly drawn) [Compound 2j, (4R,7aR,12bS)-3-(4-Bromophenethyl)-9-hydroxy-2,3,4,4a,5,6-hexahydro-1H-4,12-methanobenzofuro[3,2-e]-isoquinolin-7(7aH)-one oxalate], in test [1], a half-maximal response (EC50) required 0.15 nM and the Emax is 103%. For the same molecule, in [2], the “EC50 δ/μ ratio in the cAMP assay” value is recorded as 6.5, the Emax worked out at 96% and the half-maximal effective concentration (EC50) was found to be 0.97 nM. In addition, in test [3], the Emax is 99%; the EC50 was 20 nM and 20.1 nM. Also, in test [4], the “Bias Factor” value is 0.43, it took 4.9 nM to reach a half-maximal effect (EC50) and the Emax was 53%.
In the case of `O=C1CCC2C3Cc4ccc(O)c5c4[C@@]2(CCN3CCc2c(Cl)cccc2Cl)[C@H]1O5` (stereo partly drawn) [Compound 2k, (7aR,12bS)-3-(2,6-Dichlorophenethyl)-9-hydroxy-2,3,4,4a,5,6-hexahydro-1H-4,12-methanobenzofuro[3,2-e]isoquinolin-7(7aH)-one], the EC50 in test [1] came out at 0.37 nM; in [2], 21.9 nM; in test [3], 1880 nM; in test [4] it was 13.1 nM. The Emax in test [1] was 101%; in [2] it was 95.8%; in test [3], 74%; in test [4], 24.6%. The “Bias Factor” value in [4] was 1.04.
`O=C1CCC2C3Cc4ccc(O)c5c4C2(CCN3CCc2ccccc2)C1O5` (centres unmarked) [Compound S11, N-Phenethylnorhydromorphone]: the 50% effective concentration (EC50) was 0.04 nM in test [1]; 1.54 nM in test [2]; 23 nM and 22.7 nM in test [3]; 1.71 nM in test [4]. Also, the Emax in [1] was 102%; in test [2] it was 95.1%; in test [3], 80.6%; in test [4] it was 61.9%. Moreover, in [2], the “EC50 δ/μ ratio in the cAMP assay” value was 38.5 and 39. For the same molecule, the “Bias Factor” value in test [4] came out at 0.47.
Regarding `C[C@@H](NC(=O)[C@@H](N)Cc1ccc(O)cc1)C(=O)NCC(=O)N(C)[C@@H](Cc1ccccc1)C(=O)NCCO` [DAMGO, [D-Ala^2, N-MePhe^4, Gly-ol]-enkephalin, reference compound], in [1], the Emax is 102%.
